Reference: patent US20250129104A1, “7H-PYRROLO[2,3-D]PYRIMIDINES AND PREPARATION AND USES THEREOF” (BioSplice Therapeutics, Inc., priority 2021, published 2025)

biological target: recombinant DYRK1A kinase (Homo sapiens (Human), UniProt Q13627); assay: DYRK1A kinase assay (Ser/Thr 18 peptide Z-lyte FRET assay); format: biochemical; details: DYRK1A kinase activity; 15 μM ATP, 1 h room temperature; method text calls the value IC50
Description: Representative compounds were screened using the assay procedure for DYRK1A kinase activity as described below.
Each compound was dissolved in DMSO as a 10 mM stock and used to prepare compound source plates. Serial dilution (1:3, 11-point dose-response curves from 10 μM to 0.00016 μM) and compound transfer was performed using the ECHO 550 (Labcyte, Sunnyvale, CA) into 1536-well black-walled round bottom plates (Corning).
The DYRK1A kinase assay was run using the Ser/Thr 18 peptide Z-lyte assay kit according to manufacturer's instructions (Life Technologies—a Division of Thermo-Fisher). This is a non-radioactive assay using fluorescence resonance energy transfer (FRET) between coumarin and fluorescein to detect kinase activity which is represented as a ratio of coumarin emission/fluorescein emission.
Briefly, recombinant DYRK1A kinase, ATP and Ser/Thr peptide 18 were prepared in 1× Kinase buffer to final concentrations of 0.25 μg/mL, 15 μM, and 4 μM respectively. The mixture was allowed to incubate with the representative compounds for one hour at room temperature. All reactions were performed in duplicate. Unphosphorylated (“0% Control”) and phosphorylated (“100% control”) forms of Ser/Thr 18 served as control reactions. Additionally, an 11-point dose-response curve of Staurosporine (1 uM top) was run to serve as a positive compound control.
After incubation, Development Reagent A was diluted in Development Buffer then added to the reaction and allowed to further incubate for one hour at room temperature. The plate was read at Ex 400 Em […] to detect the coumarin signal and Ex 400 Em 520 to measure the signal (EnVision Multilabel Plate Reader, PerkinElmer).
The Emission ratio (Em) was calculated as a ratio of the coumarin (C) emission signal (at 445 nm)/Fluorescein (F) emission signal (at 520 nm). The percent phosphorylation was then calculated using the following formula: [1−((Em ratio×F100%)−C100%)/((C0%−C100%)+(Em ratio×(F100%−F0%)))]. Dose-response curves were generated, and inhibitory concentration (IC50) values were calculated using non-linear regression curve fit in the Dotmatics' Studies Software (Bishops Stortford, UK).

| Compound | EC50 |
| --- | --- |
| 4-Methoxy-N-(cis-4-methoxycyclohexyl)-5-(1-methyl-1H-benzo[d][1,2,3]triazol-6-yl)-7H-pyrrolo[2,3-d]pyrimidin-2-amine [Compound 3114] | 1.2 nM |
| 5-(1-(2,2-Difluoroethyl)-1H-benzo[d][1,2,3]triazol-6-yl)-4-methoxy-N-(cis-4-(trifluoromethoxy)cyclohexyl)-7H-pyrrolo[2,3-d]pyrimidin-2-amine [Compound 2297] | 458 nM |
| 5-(1-(2,2-Difluoroethyl)-1H-benzo[d][1,2,3]triazol-6-yl)-N-(cis-4-(difluoromethoxy)cyclohexyl)-4-methoxy-7H-pyrrolo[2,3-d]pyrimidin-2-amine [Compound 2296] | 103 nM |
| 5-(2-Cyclopropyl-7H-pyrrolo[2,3-d]pyrimidin-5-yl)-N-methyl-N-(tetrahydro-2H-pyran-4-yl)pyrazolo[1,5-a]pyridine-3-carboxamide [Compound 1552] | 194 nM |
| 5-(3-Chloropyrazolo[1,5-a]pyrimidin-5-yl)-N-(2-fluoro-2-methylpropyl)-7H-pyrrolo[2,3-d]pyrimidin-2-amine [Compound 1680] | 26.1 nM |
| Cn1cc(-c2c[nH]c3nc(NCC(C)(C)F)ncc23)ccc1=O [Compound 3, 5-(2-((2-Fluoro-2-methylpropyl)amino)-7H-pyrrolo[2,3-d]pyrimidin-5-yl)-1-methylpyridin-2(1H)-one] | 22.1 nM |
| Cn1cc(-c2c[nH]c3nc(NC4CCC(F)(F)CC4)ncc23)ccc1=O [Compound 4, 5-(2-((4,4-Difluorocyclohexyl)amino)-7H-pyrrolo[2,3-d]pyrimidin-5-yl)-1-methylpyridin-2(1H)-one] | 411 nM |
| CC(C)(F)CNc1ncc2c(-c3ccc(OC(F)F)nc3)c[nH]c2n1 [Compound 7] | > 10000 nM |
| Cc1nc2ccc(-c3c[nH]c4nc(NCC(C)(C)F)ncc34)nc2s1 [Compound 54, N-(2-Fluoro-2-methylpropyl)-5-(2-methylthiazolo[5,4-b]pyridin-5-yl)-7H-pyrrolo[2,3-d]pyrimidin-2-amine] | 671 nM |
| c1cnc2sc(-c3c[nH]c4ncncc34)nc2c1 [Compound 98, 2-(7H-Pyrrolo[2,3-d]pyrimidin-5-yl)thiazolo[5,4-b]pyridine] | 22.1 nM |
| CCNc1ncc2c(-c3ccc4nccn4c3)c[nH]c2n1 [Compound 107, N-Ethyl-5-(imidazo[1,2-a]pyridin-6-yl)-7H-pyrrolo[2,3-d]pyrimidin-2-amine] | 1.6 nM |
| Fc1cnc2ccc(-c3c[nH]c4nc(C5CC5)ncc34)cn12 [Compound 145, 2-Cyclopropyl-5-(3-fluoroimidazo[1,2-a]pyridin-6-yl)-7H-pyrrolo[2,3-d]pyrimidine] | 94.3 nM |
| CC(C)CNc1ncc2c(-c3cc(F)c4nccn4c3)c[nH]c2n1 [Compound 196, 5-(8-Fluoroimidazo[1,2-a]pyridin-6-yl)-N-isobutyl-7H-pyrrolo[2,3-d]pyrimidin-2-amine] | 60.5 nM |
| Fc1cc(-c2c[nH]c3nc(NCCC(F)(F)F)ncc23)cn2ccnc12 [Compound 204, 5-(8-Fluoroimidazo[1,2-a]pyridin-6-yl)-N-(3,3,3-trifluoropropyl)-7H-pyrrolo [2,3-d]pyrimidin-2-amine] | 6.6 nM |
| Fc1cc(-c2c[nH]c3nc(NCC4CC4)ncc23)cn2ccnc12 [Compound 207, N-(Cyclopropylmethyl)-5-(8-fluoroimidazo[1,2-a]pyridin-6-yl)-7H-pyrrolo [2,3-d]pyrimidin-2-amine] | 27.4 nM |
| Cc1cn2cc(-c3c[nH]c4nc(C5CC5)ncc34)cc(F)c2n1 [Compound 233, 2-Cyclopropyl-5-(8-fluoro-2-methylimidazo[1,2-a]pyridin-6-yl)-7H-pyrrolo [2,3-d]pyrimidine] | 268 nM |
| Cc1cn2cc(-c3c[nH]c4nc(NC5CCC(F)(F)CC5)ncc34)cc(F)c2n1 [Compound 258, N-(4,4-Difluorocyclohexyl)-5-(8-fluoro-2-methylimidazo[1,2-a]pyridin-6-yl)-7H-pyrrolo[2,3-d]pyrimidin-2-amine] | 45.3 nM |
| CCOc1ncc2c(-c3cc(F)c4ncc(C)n4c3)c[nH]c2n1 [Compound 293, 2-Ethoxy-5-(8-fluoro-3-methylimidazo[1,2-a]pyridin-6-yl)-7H-pyrrolo[2,3-d]pyrimidine] | 93.6 nM |
| Fc1cc(-c2c[nH]c3nc(C4CC4)ncc23)cn2c(C(F)F)cnc12 [Compound 359, 2-Cyclopropyl-5-(3-(difluoromethyl)-8-fluoroimidazo[1,2-a]pyridin-6-yl)-7H-pyrrolo[2,3-d]pyrimidine] | 115 nM |

Further compounds by falling EC50, results first:

| EC50 | Compound |
| --- | --- |
| 1400 nM | CC(C)(F)CNc1ncc2c(-c3ccc(C(F)F)nc3)c[nH]c2n1 [Compound 5, 5-(6-(Difluoromethyl)pyridin-3-yl)-N-(2-fluoro-2-methylpropyl)-7H-pyrrolo [2,3-d]pyrimidin-2-amine] |
| 778 nM | COc1ncc(-c2c[nH]c3nc(NCC(C)(C)F)ncc23)cn1 [Compound 9, N-(2-Fluoro-2-methylpropyl)-5-(2-methoxypyrimidin-5-yl)-7H-pyrrolo[2,3-d]pyrimidin-2-amine] |
| 768 nM | COc1ccc(-c2c[nH]c3ncnc(N[C@H]4CC[C@H](N5CCOCC5)CC4)c23)cn1 [Compound 8, 5-(6-Methoxypyridin-3-yl)-N-(trans-4-morpholinocyclohexyl)-7H-pyrrolo [2,3-d]pyrimidin-4-amine] |
| 236 nM | COc1ccc(-c2c[nH]c3nc(NCC(C)(C)F)ncc23)cc1 [Compound 1, N-(2-Fluoro-2-methylpropyl)-5-(4-methoxyphenyl)-7H-pyrrolo[2,3-d]pyrimidin-2-amine] |
| 96.8 nM | CN1CCN(c2ccc(CNc3ncc4c(-c5ccc6c(c5)CNC6=O)c[nH]c4n3)cn2)CC1 [Compound 10, 5-(2-(((6-(4-Methylpiperazin-1-yl)pyridin-3-yl)methyl)amino)-7H-pyrrolo [2,3-d]pyrimidin-5-yl)isoindolin-1-one] |
| 75.4 nM | CC(C)(C)CNc1ncc2c(-c3cc(F)c4nccn4c3)c[nH]c2n1 [Compound 197, 5-(8-Fluoroimidazo[1,2-a]pyridin-6-yl)-N-neopentyl-7H-pyrrolo[2,3-d]pyrimidin-2-amine] |
| 43.8 nM | COc1ccc(-c2c[nH]c3nc(NC4CCN(S(C)(=O)=O)CC4)ncc23)c(OC)c1 [Compound 2, 5-(2,4-Dimethoxyphenyl)-N-(1-(methylsulfonyl)piperidin-4-yl)-7H-pyrrolo [2,3-d]pyrimidin-2-amine] |
| 33.9 nM | COc1ccc(-c2c[nH]c3nc(NCC(C)(C)F)ncc23)cn1 [Compound 6, N-(2-Fluoro-2-methylpropyl)-5-(6-methoxypyridin-3-yl)-7H-pyrrolo[2,3-d]pyrimidin-2-amine] |
| 23 nM | Fc1cc(-c2c[nH]c3nc(NC4CCOCC4)ncc23)cn2ccnc12 [Compound 221, 5-(8-Fluoroimidazo[1,2-a]pyridin-6-yl)-N-(tetrahydro-2H-pyran-4-yl)-7H-pyrrolo[2,3-d]pyrimidin-2-amine] |
| 17.4 nM | 5-(1-(2,2-Difluoroethyl)-1H-benzo[d][1,2,3]triazol-6-yl)-N-(2-fluoro-2-methylpropyl)-4-methoxy-7H-pyrrolo[2,3-d]pyrimidin-2-amine [Compound 2292] |
| 15.5 nM | 5-(Imidazo[1,2-a]pyrazin-6-yl)-7H-pyrrolo[2,3-d]pyrimidine [Compound 491] |
| 14.9 nM | CO[C@H]1CC[C@@H](Nc2ncc3c(-c4cc(F)c5nccn5c4)c[nH]c3n2)CC1 [Compound 216, 5-(8-Fluoroimidazo[1,2-a]pyridin-6-yl)-N-(cis-4-methoxycyclohexyl)-7H-pyrrolo[2,3-d]pyrimidin-2-amine] |
| 6.4 nM | CN1CCN(c2ccc(Nc3ncc4c(-c5cc6cnccc6s5)c[nH]c4n3)cn2)CC1 [Compound 93, N-(6-(4-Methylpiperazin-1-yl)pyridin-3-yl)-5-(thieno[3,2-c]pyridin-2-yl)-7H-pyrrolo[2,3-d]pyrimidin-2-amine] |
| 5.5 nM | C[C@@H](Nc1ncc2c(-c3ccc4ncc(F)n4c3)c[nH]c2n1)C(F)(F)F [Compound 158, (R)-5-(3-Fluoroimidazo[1,2-a]pyridin-6-yl)-N-(1,1,1-trifluoropropan-2-yl)-7H-pyrrolo[2,3-d]pyrimidin-2-amine] |
| 5.5 nM | CN1CCC(Nc2ncc3c(-c4cc(F)c5nccn5c4)c[nH]c3n2)CC1 [Compound 219, 5-(8-Fluoroimidazo[1,2-a]pyridin-6-yl)-N-(1-methylpiperidin-4-yl)-7H-pyrrolo[2,3-d]pyrimidin-2-amine] |
| 4.6 nM | FC(F)(F)CNc1ncc2c(-c3ccc4nccn4c3)c[nH]c2n1 [Compound 114, 5-(Imidazo[1,2-a]pyridin-6-yl)-N-(2,2,2-trifluoroethyl)-7H-pyrrolo[2,3-d]pyrimidin-2-amine] |
